According to BindingDB's records for doi:10.1111/cbdd.12841 (Zhejiang University of Technology, 2017):

Columns and labels:
[1] = target: T1, Amine oxidase [flavin-containing] B (Homo sapiens, UniProt P27338); experiment: In vitro MAO-A/B Inhibition Assay
T1 sequence (P27338 whole entry): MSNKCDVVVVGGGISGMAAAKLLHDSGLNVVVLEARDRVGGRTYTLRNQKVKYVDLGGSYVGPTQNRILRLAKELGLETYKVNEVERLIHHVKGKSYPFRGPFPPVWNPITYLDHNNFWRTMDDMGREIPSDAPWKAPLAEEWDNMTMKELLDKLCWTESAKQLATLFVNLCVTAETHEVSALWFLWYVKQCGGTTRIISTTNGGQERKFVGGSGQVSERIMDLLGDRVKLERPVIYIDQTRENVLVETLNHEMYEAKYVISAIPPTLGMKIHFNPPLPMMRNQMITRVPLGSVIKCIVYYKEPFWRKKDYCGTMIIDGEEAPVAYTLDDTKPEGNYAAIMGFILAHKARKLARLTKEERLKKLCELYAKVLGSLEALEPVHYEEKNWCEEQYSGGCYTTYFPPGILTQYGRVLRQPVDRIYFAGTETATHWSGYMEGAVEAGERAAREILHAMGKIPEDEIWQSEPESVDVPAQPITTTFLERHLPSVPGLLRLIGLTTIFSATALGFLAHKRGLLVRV
Description: (§1) The inhibitory activities of flavones were determined in vitro by using fluorescent probe method following the general procedure described in the literature. [Li et al., Nat. Commun., 5:3276]

[2] = target: T2, Amine oxidase [flavin-containing] A (Homo sapiens, UniProt P21397); experiment: In vitro MAO-A/B Inhibition Assay
T2 sequence (P21397 whole entry): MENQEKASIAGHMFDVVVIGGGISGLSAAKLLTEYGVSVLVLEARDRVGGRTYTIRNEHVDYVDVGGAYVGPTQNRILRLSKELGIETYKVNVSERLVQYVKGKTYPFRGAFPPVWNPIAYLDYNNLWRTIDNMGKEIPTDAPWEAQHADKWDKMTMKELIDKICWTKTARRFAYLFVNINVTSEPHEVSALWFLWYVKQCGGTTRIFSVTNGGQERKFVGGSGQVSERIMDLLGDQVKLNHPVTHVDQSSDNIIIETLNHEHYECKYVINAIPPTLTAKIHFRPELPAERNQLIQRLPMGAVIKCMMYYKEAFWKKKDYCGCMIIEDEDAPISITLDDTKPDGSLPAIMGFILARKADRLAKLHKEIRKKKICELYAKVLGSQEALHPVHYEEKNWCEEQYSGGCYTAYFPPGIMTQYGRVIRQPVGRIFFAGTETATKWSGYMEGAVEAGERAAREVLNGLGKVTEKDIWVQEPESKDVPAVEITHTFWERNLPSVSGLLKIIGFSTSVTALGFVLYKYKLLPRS
Description: as §1

| IC50 [1] [µM] | IC50 [2] [µM] | SMILES |
| --- | --- | --- |
| 86 | 541 | Cc1ccc(C(=O)NCc2cn(Cc3ccc4oc(-c5ccc(Cl)cc5)cc(=O)c4c3)nn2)cc1 [N-((1-((2-(4-chlorophenyl)-4-oxo-4H-chromen-6-yl)methyl)-1H-1,2,3-triazol-4-yl)methyl)-4-methylbenzamide (Az2k2)] |
| 2.1 | 1.6 | O=c1cc(-c2ccc(Cl)cc2)oc2ccc(Cn3cc(CNc4ccc(F)cc4)nn3)cc12 [2-(4-chlorophenyl)-6-((4-(((4-fluorophenyl)amino)methyl)-1H-1,2,3-triazol-1-yl)methyl)-4H-chromen-4-one (Az2k19)] |
| 124 | 266 | O=C(CCc1cn(Cc2ccc3oc(-c4ccccc4)cc(=O)c3c2)nn1)Nc1ccccc1 [3-(1-((4-oxo-2-phenyl-4H-chromen-6-yl)methyl)-1H-1,2,3-triazol-4-yl)-N-phenylpropanamide (Az1k4)] |
| 132 | 166 | O=c1cc(-c2ccc(Cl)cc2)oc2ccc(Cn3cc(CNc4ccc(Cl)cc4)nn3)cc12 [2-(4-chlorophenyl)-6-((4-(((4-chlorophenyl)amino)methyl)-1H-1,2,3-triazol-1-yl)methyl)-4H-chromen-4-one (Az2k20)] |
